Results: patent publication US8853230B2, “Inhibitors of JAK” (Portola Pharmaceuticals, Inc., priority 2009, dated 2014)

How the values were obtained:
[1] = target: T1, TYK2 (Homo sapiens, UniProt P29597); assay: Z'-LYTE kinase assay, TYK2 tyrosine phosphorylation activity; format: biochemical
T1 construct: 5 μl of catalytic domain recombinant Kinase enzyme+Tyr peptide substrate (Invitrogen, Calif.); purchased Invitrogen
T1 sequence (P29597 897-1176 limits assumed): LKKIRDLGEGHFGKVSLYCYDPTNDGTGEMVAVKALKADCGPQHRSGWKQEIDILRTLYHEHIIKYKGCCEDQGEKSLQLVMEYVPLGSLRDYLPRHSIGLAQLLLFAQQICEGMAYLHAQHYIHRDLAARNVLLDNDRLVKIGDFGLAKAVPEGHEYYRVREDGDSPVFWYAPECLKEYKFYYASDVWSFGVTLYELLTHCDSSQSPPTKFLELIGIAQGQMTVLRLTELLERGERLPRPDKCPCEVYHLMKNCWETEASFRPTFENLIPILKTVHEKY
Method in brief: (§1)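 FRET-based Z′-LYTE format with recombinant catalytic-domain kinases and Tyr6 peptide substrate; compounds in 1% DMSO final, duplicate wells. Kinase reaction with ATP runs 1 h at room temperature, then protease development 1 h; fluorescence read at ex 400, em 445/520 nm. IC50 from 4-parameter logistic fit of percent phosphorylation versus uninhibited.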

[2] = target: T2, JAK3 (Homo sapiens, UniProt P52333); assay: Z'-LYTE kinase assay, JAK3 tyrosine phosphorylation activity; format: biochemical
T2 construct: 5 μl of catalytic domain recombinant Kinase enzyme+Tyr peptide substrate (Invitrogen, Calif.); purchased Invitrogen
T2 sequence (P52333 822-1111 limits assumed): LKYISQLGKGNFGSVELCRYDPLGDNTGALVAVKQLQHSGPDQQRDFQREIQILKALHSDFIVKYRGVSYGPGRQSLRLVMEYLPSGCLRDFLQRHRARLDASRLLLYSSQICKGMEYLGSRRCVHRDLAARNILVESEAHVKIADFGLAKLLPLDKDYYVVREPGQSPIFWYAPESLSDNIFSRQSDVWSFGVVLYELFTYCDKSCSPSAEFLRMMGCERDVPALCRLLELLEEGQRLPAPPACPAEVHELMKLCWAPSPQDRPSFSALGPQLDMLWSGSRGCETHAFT
Method in brief: as §1

[3] = system: IL4-induced phospho STAT6 formation in Ramos B lymphocytes; assay: Inhibition of IL4-induced phospho STAT6 formation in Ramos B lymphocytes (flow cytometry); format: cell-based, human; conditions: for inhibition at 0.2 µM / inhibition at 1 µM: Homo sapiens; for inhibition at 0.2 µM: read-out: % Inhibition of IL-4 Induced STAT6 Phosphorylation 200 nM; for inhibition at 1 µM: read-out: % Inhibition of IL-4 Induced STAT6 Phosphorylation 1 μM
Description: Similar types of assays can be used to assess JAK inhibitory activity and to determine the degree of selectivity of the particular compound as compared to syk. One means of assaying for such inhibition is detection of the effect of the compounds of the present invention on the upregulation of downstream gene products. In the Ramos/IL4 assay, B-cells are stimulated with the cytokine Interleukin-4 (IL-4) leading to the activation of the JAK/Stat pathway through phosphorylation of the JAK family kinases, JAK1 and JAK3, which in turn phosphorylate and activate the transcription factor Stat-6. […] To study the effect of inhibitors (e.g., the 2,4-substituted pyrimindinediamine compounds described herein) on the JAK1 and JAK3, human Ramos B-cells are stimulated with human IL-4. 10′ post-stimulation, cells are subjected to intracellular flow cytometry to measure the extent of STAT-6 phosphorylation. 20 to 24 hours post-stimulation, cells are stained for upregulation of CD23 and analyzed using flow cytometry.
Inhibition of IL4-induced phospho STAT6 formation was measured by pre-incubating 0.5 million Ramos B lymphocytes (ATCC) with 5 μl compound or DMSO vehicle for 1 hour at 37° C./5% CO2. Cells were activated by addition of 1 ng/ml [f]IL4 (R & D Research Systems) for 10 min at 37° C./5% CO2 and then fixed by addition of 1.6% [f]PFA (Electron Microscopy Services). Following a PBS wash step and permaeabilization with 100% methanol, cells were incubated with ALEXA-conjugated anti-phosphoSTAT6 (Y641) antibody (BD 612600). The extent of cell associated-fluorescence was determined by flow cytomentry and data expressed as mean fluorescent intensity. The extent of inhibition of the IL4-induced signal was then calculated.

[4] = target: T3, JAK2 (Homo sapiens, UniProt O60674); assay: Z'-LYTE kinase assay, JAK2 tyrosine phosphorylation activity; format: biochemical
T3 construct: 5 μl of catalytic domain recombinant Kinase enzyme+Tyr peptide substrate (Invitrogen, Calif.); purchased Invitrogen
T3 sequence (O60674 849-1124 limits assumed): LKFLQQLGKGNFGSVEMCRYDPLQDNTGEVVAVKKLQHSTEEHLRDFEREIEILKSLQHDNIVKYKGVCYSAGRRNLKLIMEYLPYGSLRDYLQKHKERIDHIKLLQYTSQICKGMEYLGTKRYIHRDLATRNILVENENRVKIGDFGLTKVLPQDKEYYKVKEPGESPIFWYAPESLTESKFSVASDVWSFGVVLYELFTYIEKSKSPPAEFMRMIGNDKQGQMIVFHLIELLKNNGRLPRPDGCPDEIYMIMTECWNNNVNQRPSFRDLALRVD
Method in brief: as §1

[5] = target: T4, JAK1 (Homo sapiens, UniProt P23458); assay: Z'-LYTE kinase assay, JAK1 tyrosine phosphorylation activity; format: biochemical; conditions: read-out: JAK 1 IC50
T4 construct: 5 μl of catalytic domain recombinant Kinase enzyme+Tyr peptide substrate (Invitrogen, Calif.); purchased Invitrogen
T4 sequence (P23458 875-1153 limits assumed): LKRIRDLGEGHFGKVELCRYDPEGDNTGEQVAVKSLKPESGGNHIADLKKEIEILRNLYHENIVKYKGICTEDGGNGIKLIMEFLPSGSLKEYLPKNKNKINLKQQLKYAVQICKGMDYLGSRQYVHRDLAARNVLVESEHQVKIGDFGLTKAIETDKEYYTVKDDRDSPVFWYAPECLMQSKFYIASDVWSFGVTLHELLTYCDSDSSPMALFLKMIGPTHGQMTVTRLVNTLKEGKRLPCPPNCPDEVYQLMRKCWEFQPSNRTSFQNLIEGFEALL
Method in brief: as §1

## 2-(3-(azetidine-1-carboxamido)phenylamino)-4-(benzylamino)pyrimidine-5-carboxamide [Example 219]
[1]
  IC50: 0.01 to 0.1 µM
[2]
  IC50: 0.001 to 0.01 µM
[3]; 200 nM compound
  % Inhibition of IL-4 Induced STAT6 Phosphorylation 200 nM: 19.0%
[3]; 1 μM compound
  % Inhibition of IL-4 Induced STAT6 Phosphorylation 1 μM: 65.3%
[4]
  IC50: 0.01 to 0.1 µM
[5]
  IC50: 0.01 to 0.1 µM

## CC(=O)Nc1cccc(Nc2ncc(C(N)=O)c(NCc3ccccc3F)n2)c1 [Example 100, 2-(3-acetamidophenylamino)-4-(2-fluorobenzylamino)pyrimidine-5-carboxamide]
[1]
  IC50: 0.001 to 0.01 µM
[2]
  IC50: 0.001 to 0.01 µM
[3]; 200 nM compound
  inhibition at 0.2 µM: 43.5%
[3]; 1 μM compound
  inhibition at 1 µM: 95.3%
[4]
  IC50: 0.01 to 0.1 µM
[5]
  IC50: 0.01 to 0.1 µM

## COCC(=O)Nc1cc(Nc2ncc(C(N)=O)c(NCc3ccccc3)n2)ccc1Cl [Example 106, 4-(benzylamino)-2-(4-chloro-3-(2-methoxyacetamido)phenylamino)pyrimidine-5-carboxamide]
[1]
  IC50: 0.01 to 0.1 µM
[2]
  IC50: 0.01 to 0.1 µM
[3]; 200 nM compound
  inhibition at 0.2 µM: 16.8%
[3]; 1 μM compound
  inhibition at 1 µM: 27.8%
[4]
  IC50: 0.1 to 1 µM
[5]
  IC50: 0.1 to 1 µM

## CC(=O)Nc1cc(Nc2ncc(C(N)=O)c(N[C@H](C)c3ccccc3)n2)ccc1Cl [Example 108, (R)-2-(3-acetamido-4-chlorophenylamino)-4-(1-phenylethylamino)pyrimidine-5-carboxamide]
[1]
  IC50: 0.01 to 0.1 µM
[2]
  IC50: 0.001 to 0.01 µM
[3]; 200 nM compound
  inhibition at 0.2 µM: 21.3%
[3]; 1 μM compound
  inhibition at 1 µM: 70%
[4]
  IC50: 0.01 to 0.1 µM
[5]
  IC50: 0.1 to 1 µM

## C[C@@H](Nc1nc(Nc2ccc(Cl)c(NC(=O)C3CC3)c2)ncc1C(N)=O)c1ccccc1 [Example 110, (R)-2-(4-chloro-3-(cyclopropanecarboxamido)phenylamino)-4-(1-phenylethylamino)pyrimidine-5-carboxamide]
[1]
  IC50: 0.1 to 1 µM
[2]
  IC50: 0.01 to 0.1 µM
[3]; 200 nM compound
  inhibition at 0.2 µM: 48.3%
[3]; 1 μM compound
  inhibition at 1 µM: 97.7%
[4]
  IC50: 0.1 to 1 µM
[5]
  IC50: 0.1 to 1 µM

## CNC(=O)Nc1cc(Nc2ncc(C(N)=O)c(N[C@H](C)c3ccccc3)n2)ccc1Cl [Example 132, (R)-2-(4-chloro-3-(3-methylureido)phenylamino)-4-(1-phenylethylamino)pyrimidine-5-carboxamide]
[1]
  IC50: 0.1 to 1 µM
[2]
  IC50: 0.01 to 0.1 µM
[3]; 200 nM compound
  inhibition at 0.2 µM: 7.5%
[3]; 1 μM compound
  inhibition at 1 µM: 53.7%
[4]
  IC50: 0.1 to 1 µM
[5]
  IC50: 0.1 to 1 µM

## CCCCNc1nc(Nc2cccc(NC(=O)N3CCCC3)c2)ncc1C(N)=O [Example 135, 4-(butylamino)-2-(3-(pyrrolidine-1-carboxamido)phenylamino)pyrimidine-5-carboxamide]
[1]
  IC50: 0.001 to 0.01 µM
[2]
  IC50: 0.001 to 0.01 µM
[3]; 200 nM compound
  inhibition at 0.2 µM: 42.3%
[3]; 1 μM compound
  inhibition at 1 µM: 89.7%
[4]
  IC50: 0.01 to 0.1 µM
[5]
  IC50: 0.01 to 0.1 µM

## C[C@@H](Nc1nc(Nc2cccc(NC(=O)N3CCC[C@@H]3C)c2)ncc1C(N)=O)c1ccccc1 [Example 137, 2-(3-((S)-2-methylpyrrolidine-1-carboxamido)phenylamino)-4-((R)-1-phenylethylamino)pyrimidine-5-carboxamide]
[1]
  IC50: 0.01 to 0.1 µM
[2]
  IC50: 0.001 to 0.01 µM
[3]; 200 nM compound
  inhibition at 0.2 µM: 14.7%
[3]; 1 μM compound
  inhibition at 1 µM: 57.3%
[4]
  IC50: 0.01 to 0.1 µM
[5]
  IC50: 0.1 to 1 µM

## CC(C)CNc1cc(Nc2cccc(NC(=O)N3CCCC3)c2)ncc1C(N)=O [Example 324, 4-(isobutylamino)-6-(3-(pyrrolidine-1-carboxamido)phenylamino)nicotinamide]
[1]
  IC50: 0.1 to 1 µM
[2]
  IC50: 0.01 to 0.1 µM
[4]
  IC50: 0.1 to 1 µM
[5]
  IC50: 0.1 to 1 µM

## C[C@@H](Nc1cc(Nc2cccc(NC(=O)N3CCCC3)c2)ncc1C(N)=O)c1ccccc1 [Example 325, (R)-4-(1-phenylethylamino)-6-(3-(pyrrolidine-1-carboxamido)phenylamino)nicotinamide]
[1]
  IC50: 0.1 to 1 µM
[2]
  IC50: 0.001 to 0.01 µM
[4]
  IC50: 0.1 to 1 µM
[5]
  IC50: 0.1 to 1 µM

## NC(=O)c1cnc(Nc2cccc(NC(=O)N3CCCC3)c2)cc1NCc1ccccc1 [Example 326, 4-(benzylamino)-6-(3-(pyrrolidine-1-carboxamido)phenylamino)nicotinamide]
[1]
  IC50: 0.01 to 0.1 µM
[2]
  IC50: 0.001 to 0.01 µM
[4]
  IC50: 0.1 to 1 µM
[5]
  IC50: 0.1 to 1 µM

## CC(=O)Nc1cccc(Nc2cc(NCCC(C)C)c(C(N)=O)cn2)c1 [Example 327, 6-(3-acetamidophenylamino)-4-(isopentylamino)nicotinamide]
[1]
  IC50: 0.01 to 0.1 µM
[2]
  IC50: 0.01 to 0.1 µM
[4]
  IC50: 0.1 to 1 µM
[5]
  IC50: 0.1 to 1 µM

## CC(C)CCNc1cc(Nc2cccc(NC(=O)N3CCCC3)c2)ncc1C(N)=O [Example 328, 4-(isopentylamino)-6-(3-(pyrrolidine-1-carboxamido)phenylamino)nicotinamide]
[1]
  IC50: 0.01 to 0.1 µM
[2]
  IC50: 0.01 to 0.1 µM
[4]
  IC50: 0.1 to 1 µM
[5]
  IC50: 0.1 to 1 µM

## CC(=O)Nc1cccc(Nc2cc(NCC3CC3)c(C(N)=O)cn2)c1 [Example 329, 6-(3-acetamidophenylamino)-4-(cyclopropylmethylamino)nicotinamide]
[1]
  IC50: 0.1 to 1 µM
[2]
  IC50: 0.1 to 1 µM
[4]
  IC50: 0.1 to 1 µM
[5]
  IC50: > 1 µM

## CC(=O)Nc1cccc(Nc2cc(NC3CCCC3)c(C(N)=O)cn2)c1 [Example 330, 6-(3-acetamidophenylamino)-4-(cyclopentylamino)nicotinamide]
[1]
  IC50: 0.01 to 0.1 µM
[2]
  IC50: 0.1 to 1 µM
[4]
  IC50: 0.1 to 1 µM
[5]
  IC50: 0.1 to 1 µM

## CC(=O)Nc1cccc(Nc2cc(NCC3CCC3)c(C(N)=O)cn2)c1 [Example 331, 6-(3-acetamidophenylamino)-4-(cyclobutylmethylamino)nicotinamide]
[1]
  IC50: 0.01 to 0.1 µM
[2]
  IC50: 0.01 to 0.1 µM
[4]
  IC50: 0.1 to 1 µM
[5]
  IC50: 0.1 to 1 µM

## CC(=O)Nc1cccc(Nc2cc(NCc3ccc(F)cc3)c(C(N)=O)cn2)c1 [Example 332, 6-(3-acetamidophenylamino)-4-(4-fluorobenzylamino)nicotinamide]
[1]
  IC50: > 1 µM
[2]
  IC50: 0.1 to 1 µM
[4]
  IC50: 0.1 to 1 µM
[5]
  IC50: > 1 µM

## CC(=O)Nc1cccc(Nc2cc(NC3Cc4ccccc4C3)c(C(N)=O)cn2)c1 [Example 333, 6-(3-acetamidophenylamino)-4-(2,3-dihydro-1H-inden-2-ylamino)nicotinamide]
[1]
  IC50: 0.1 to 1 µM
[2]
  IC50: 0.1 to 1 µM
[4]
  IC50: > 1 µM
[5]
  IC50: > 1 µM

## CC(=O)Nc1cccc(Nc2cc(NCc3ccc4c(c3)OCO4)c(C(N)=O)cn2)c1 [Example 334, 6-(3-acetamidophenylamino)-4-(benzo[d][1,3]dioxol-5-ylmethylamino)nicotinamide]
[1]
  IC50: > 1 µM
[2]
  IC50: 0.1 to 1 µM
[4]
  IC50: > 1 µM
[5]
  IC50: > 1 µM

## CC(=O)Nc1cccc(Nc2cc(N[C@H]3CCc4ccccc43)c(C(N)=O)cn2)c1 [Example 335, (S)-6-(3-acetamidophenylamino)-4-(2,3-dihydro-1H-inden-1-ylamino)nicotinamide]
[1]
  IC50: 0.01 to 0.1 µM
[2]
  IC50: 0.01 to 0.1 µM
[4]
  IC50: > 1 µM
[5]
  IC50: 0.1 to 1 µM

## CC(=O)Nc1cccc(Nc2cc(NCc3cccc(F)c3F)c(C(N)=O)cn2)c1 [Example 336, 6-(3-acetamidophenylamino)-4-(2,3-difluorobenzylamino)nicotinamide]
[1]
  IC50: 0.1 to 1 µM
[2]
  IC50: 0.001 to 0.01 µM
[4]
  IC50: 0.1 to 1 µM
[5]
  IC50: 0.1 to 1 µM

## CC(=O)Nc1cccc(Nc2cc(NCc3cccc(Cl)c3)c(C(N)=O)cn2)c1 [Example 337, 6-(3-acetamidophenylamino)-4-(3-chlorobenzylamino)nicotinamide]
[1]
  IC50: 0.1 to 1 µM
[2]
  IC50: 0.01 to 0.1 µM
[4]
  IC50: 0.1 to 1 µM
[5]
  IC50: 0.1 to 1 µM

## CC(=O)Nc1cccc(Nc2cc(NCCc3ccccc3)c(C(N)=O)cn2)c1 [Example 338, 6-(3-acetamidophenylamino)-4-(phenethylamino)nicotinamide]
[1]
  IC50: 0.1 to 1 µM
[2]
  IC50: 0.1 to 1 µM
[4]
  IC50: > 1 µM
[5]
  IC50: > 1 µM
